Measurements reported in patent US20040038199A1, “Phenotyping assay and reagents therefor” (priority 2000, published 2004).
Read-outs that look alike come from different tables or passages of the source.

Columns and labels:
Type in all cases: cell-based, HIV-1
[1] = tested on: WT (HXB2) generated by FPH or RVA; assay: MTT-reduction cell viability drug susceptibility assay, WT (Table 3B); settings: for EC50: Human immunodeficiency virus 1, HXB2, Table 3B; for fold resistance: Table 3B
Procedure: (§1) As previously discussed, recombinant virus produced by the method of the present invention may be used in drug sensitivity assays. A suitable drug sensitivity assay is described in Pauwels et al. (1988) and is an MTT-reduction colorimetric cell viability assay. Cells infected with the virus are plated into the wells of tissue culture plates and incubated with the anti-viral drug to be tested. After incubation, MTT (3-(4,5-dimethylthiazol-2-yl)-2,5diphenyltetrazolium bromide) is added to the cell culture. Only live cells produce the blue formazan product after incubation with MTT. This product is detectable by reading the optical absorbance at 540-590 nm, so the absorbance reading gives a measure of the cells which have been protected from the virus by the anti-viral drug. Viral drug resistance results in a decrease in surviving cells and a decrease in absorbance at 540-590 nm.
(§2) In order to determine whether the extra sequences in the FPH recombinants contain determinants of susceptibility, the recombinant viruses were tested against several drugs. Drug susceptibility was determined by the 3-(4,5dimethylthiazol-2-yl)-2,5-diphenyltetrazolium bromide (MTT)-reduction calorimetric cell viability assay described previously (Pauwels et al. 1988; Robinson et al., 2000). Changes in susceptibility were defined as fold increase in IC50 relative to WT (HXB2). Nucleotide sequences were determined using ABI 3700 capillary sequencers and Big Dye terminators. […] Virus 1 also gave a 2.2-fold (Table 3A) or 4-fold (Table 3B) higher susceptibility to IDV and 2.9-fold (Table 3A) or 3.2-fold higher susceptibility to APV when generated by RVA.

HXB2 = assay: MTT-reduction cell viability drug susceptibility assay, wild type HXB2 (Table 3A); settings: for fold resistance: HXB2 wild type (reference)
Procedure: as §1, §2

[2] = tested on: Virus 4.1, 4.2, 4.3 (recombinants by RVA); assay: MTT-reduction cell viability drug susceptibility assay, viruses 4.1-4.3 (Table 3B); settings: for EC50: Human immunodeficiency virus 1, Table 3B; for fold resistance: Table 3B, relative to WT
Procedure: as §1
(§3) The LTR was added to the nested products by PMR prior to transfection. The PMR reactions successfully added the LTR sequences to the nested products (FIG. 9). The first round RT-PCR reactions were also used as templates to generate products for RVA by cotransfection with pHXBΔCSPRTC. Triplicate PCR products were cotransfected into MT4 cells with the linearised plasmid pHXBTOPO1, in the case of the PMR products, and with linearised pHXBΔCSPRTC in for the RVA products. Viral cytopathic effect was observed and titratable virus was harvested in the supernatants. No virus was isolated from virus 2 using FPH and only one of the triplicate cultures from virus 3 yielded infectious virus. All of the RVA cultures produced virus.
as §2

[3] = tested on: Virus 1 (recombinant generated from plasma of Subject 1 by FPH or RVA); assay: MTT-reduction cell viability drug susceptibility assay, recombinant Virus 1 (FPH or RVA); settings: for fold resistance: relative to WT (HXB2); for fold higher susceptibility when generated by RVA than when generated by FPH: virus 1
Procedure: as §1
(§4) In this experiment, plasma from three HIV-1 infected subjects experiencing virological failure on PI-containing therapy regimens was used as the basis for the FPH to generate recombinant virus. […] Virus from Subject 2 had L10I, M46I, I50V and a Lp1′F mutation at the p1/p6 protease cleavage site, all of which are mutations typical of high level APV resistance.
as §3, §2

[4] = tested on: Virus 5.1 (FPH), 5.2 (RVA); assay: MTT-reduction cell viability drug susceptibility assay, viruses 5.1 and 5.2 (Table 3B); settings: for EC50: Human immunodeficiency virus 1, Table 3B; for fold resistance: Table 3B, relative to WT
Procedure: as §1, §3, §2

[5] = tested on: Virus 3 (recombinant generated from plasma of Subject 3 by FPH or RVA); assay: MTT-reduction cell viability drug susceptibility assay, recombinant Virus 3 (FPH or RVA); settings: for fold resistance: relative to WT (HXB2); for difference in susceptibility between the two techniques (RVA vs FPH): virus 3
Procedure: as §1, §4, §3, §2

[6] = tested on: Virus 3.1, 3.2, 3.3 (recombinants by FPH or RVA); assay: MTT-reduction cell viability drug susceptibility assay, viruses 3.1-3.3 (Table 3B); settings: for fold resistance: Table 3B, relative to WT
Procedure: as §1, §3, §2

[7] = tested on: Virus 2 (recombinant generated from plasma of Subject 2 by RVA); assay: MTT-reduction cell viability drug susceptibility assay, recombinant Virus 2 (RVA); settings: for EC50 / fold resistance: Table 3A, Virus 2, method RVA; for fold resistance: relative to WT (HXB2); for resistance, fold higher than wild-type: Virus 2 obtained via the RVA
Procedure: as §1, §4, §3, §2

[8] = Human immunodeficiency virus 1, HXB2 wild type
[9] = Human immunodeficiency virus 1, Table 3A, Virus 1, method RVA, read-out: Drug EC50
[10] = Human immunodeficiency virus 1, read-out: Drug EC50, Table 3A, Virus 1, method FPH
[11] = Human immunodeficiency virus 1, Table 3A, Virus 3, method FPH
[12] = Human immunodeficiency virus 1, Table 3A, Virus 3, method RVA
[13] = Human immunodeficiency virus 1, Table 3B, Virus 3.1, method FPH, read-out: Drug EC50
[14] = Human immunodeficiency virus 1, Table 3B, Virus 3.2, method FPH, read-out: Drug EC50
[15] = Human immunodeficiency virus 1, Table 3B, Virus 3.2, method RVA, read-out: Drug EC50
[16] = Human immunodeficiency virus 1, Table 3B, Virus 3.3, method FPH, read-out: Drug EC50
[17] = Human immunodeficiency virus 1, read-out: Drug EC50, Table 3B, Virus 3.1, method RVA

CC(C)CN(C[C@@H](O)[C@H](Cc1ccccc1)NC(=O)O[C@H]1CCOC1)S(=O)(=O)c1ccc(N)cc1 [APV, amprenavir]
EC50 ([1]; method FPH): 113 nM | EC50 ([1]; method RVA): 121 nM | fold resistance ([1]; method FPH (reference)): (1.0) fold | fold resistance ([1]; method RVA (reference)): (1.0) fold | fold resistance (HXB2): (1.0) fold | EC50 (HXB2; [8]): 67.5 nM | EC50 ([2]; Virus 4.1, method RVA): > 2500 nM | EC50 ([2]; Virus 4.2, method RVA): 2010 nM | EC50 ([2]; Virus 4.3, method RVA): > 2500 nM | fold resistance ([2]; Virus 4.1, method RVA): (>21) fold | fold resistance ([2]; Virus 4.2, method RVA): (17) fold | fold resistance ([2]; Virus 4.3, method RVA): (>21) fold | EC50 [3, 9]: 128 nM | EC50 [3, 10]: 366 nM | fold resistance ([3]; Table 3A, Virus 1, method FPH): (5.4) fold | fold resistance ([3]; Table 3A, Virus 1, method RVA): (1.9) fold | fold higher susceptibility when generated by RVA than when generated by FPH ([3]; Table 3A experiment): 2.9 fold | fold higher susceptibility when generated by RVA than when generated by FPH ([3]; Table 3B experiment): 3.2 fold | EC50 ([4]; Virus 5.1, method FPH): 1570 nM | EC50 ([4]; Virus 5.2, method RVA): 802 nM | fold resistance ([4]; Virus 5.1, method FPH): (14) fold | fold resistance ([4]; Virus 5.2, method RVA): (6.6) fold | EC50 [5, 11]: 718 nM | EC50 [5, 12]: 396 nM | fold resistance ([5]; Table 3A, Virus 3, method FPH): (11) fold | fold resistance ([5]; Table 3A, Virus 3, method RVA): (5.9) fold | difference in susceptibility between the two techniques (RVA vs FPH) ([5]; Table 3B experiment): 2.0 fold | difference in susceptibility between the two techniques (RVA vs FPH) ([5]; first of the two printed values (Table 3A experiment)): 1.9 fold | EC50 [6, 13]: 865 nM | EC50 [6, 14]: 691 nM | EC50 [6, 15]: 245 nM | EC50 [6, 16]: 619 nM | EC50 [6, 17]: 211 nM | fold resistance ([6]; Virus 3.1, method FPH): (7.7) fold | fold resistance ([6]; Virus 3.1, method RVA): (1.7) fold | fold resistance ([6]; Virus 3.2, method FPH): (6.1) fold | fold resistance ([6]; Virus 3.2, method RVA): (2.0) fold | fold resistance ([6]; Virus 3.3, method FPH): (5.5) fold | EC50 ([7]; Human immunodeficiency virus 1): 1070 nM | fold resistance [7]: (16) fold | resistance, fold higher than wild-type ([7]; Table 3B experiment): > 21 fold | resistance, fold higher than wild-type ([7]; first printed value (Table 3A experiment)): 16 fold

CC(C)c1nc(CN(C)C(=O)N[C@H](C(=O)N[C@@H](Cc2ccccc2)C[C@H](O)[C@H](Cc2ccccc2)NC(=O)OCc2cncs2)C(C)C)cs1 [RTV]
EC50 (HXB2; HXB2 wild type): 65.1 nM | fold resistance (HXB2): (1.0) fold | EC50 ([3]; Table 3A, Virus 1, method FPH, read-out: Drug EC50): 205 nM | fold resistance ([3]; Table 3A, Virus 1, method FPH): (3.1) fold | EC50 ([3]; Table 3A, Virus 1, method RVA, read-out: Drug EC50): 90.4 nM | fold resistance ([3]; Table 3A, Virus 1, method RVA): (1.4) fold | EC50 ([5]; Table 3A, Virus 3, method FPH): 1790 nM | fold resistance ([5]; Table 3A, Virus 3, method FPH): (27) fold | EC50 ([5]; Table 3A, Virus 3, method RVA): 1400 nM | fold resistance ([5]; Table 3A, Virus 3, method RVA): (22) fold | EC50 [7]: 454 nM | fold resistance [7]: (7.0) fold

CC(C)(C)NC(=O)[C@@H]1CN(Cc2cccnc2)CCN1C[C@@H](O)C[C@@H](Cc1ccccc1)C(=O)N[C@H]1c2ccccc2C[C@H]1O [IDV, indinavir]
EC50 ([1]; method FPH): 30.8 nM | EC50 ([1]; method RVA): 31.2 nM | fold resistance ([1]; method FPH (reference)): (1.0) fold | fold resistance ([1]; method RVA (reference)): (1.0) fold | fold resistance (HXB2): (1.0) fold | EC50 (HXB2; [8]): 29.7 nM | EC50 ([2]; Virus 4.1, method RVA): 65 nM | EC50 ([2]; Virus 4.2, method RVA): 23.8 nM | EC50 ([2]; Virus 4.3, method RVA): 39.3 nM | fold resistance ([2]; Virus 4.1, method RVA): (2.1) fold | fold resistance ([2]; Virus 4.2, method RVA): (−1.3) fold | fold resistance ([2]; Virus 4.3, method RVA): (1.3) fold | EC50 [3, 9]: 14.2 nM | EC50 [3, 10]: 31.2 nM | fold resistance ([3]; Table 3A, Virus 1, method FPH): (1.1) fold | fold resistance ([3]; Table 3A, Virus 1, method RVA): (0.48) fold | fold higher susceptibility when generated by RVA than when generated by FPH ([3]; Table 3A experiment): 2.2 fold | fold higher susceptibility when generated by RVA than when generated by FPH ([3]; Table 3B experiment): 4 fold | EC50 ([4]; Virus 5.1, method FPH): 2230 nM | EC50 ([4]; Virus 5.2, method RVA): 1520 nM | fold resistance ([4]; Virus 5.1, method FPH): (72) fold | fold resistance ([4]; Virus 5.2, method RVA): (49) fold | EC50 [5, 11]: 1250 nM | EC50 [5, 12]: 689 nM | fold resistance ([5]; Table 3A, Virus 3, method FPH): (42) fold | fold resistance ([5]; Table 3A, Virus 3, method RVA): (23) fold | EC50 [6, 13]: 60.1 nM | EC50 [6, 14]: 57.1 nM | EC50 [6, 15]: 16.5 nM | EC50 [6, 16]: 53.2 nM | EC50 [6, 17]: 11.6 nM | fold resistance ([6]; Virus 3.1, method FPH): (2.0) fold | fold resistance ([6]; Virus 3.1, method RVA): (−2.7) fold | fold resistance ([6]; Virus 3.2, method FPH): (1.9) fold | fold resistance ([6]; Virus 3.2, method RVA): (−1.9) fold | fold resistance ([6]; Virus 3.3, method FPH): (1.7) fold | EC50 ([7]; Human immunodeficiency virus 1): 18.7 nM | fold resistance [7]: (0.63) fold
